{"source": "patent US12643882B2", "about": "“Inhibitors of human respiratory syncytial virus and metapneumovirus” (priority 2022, dated 2026)", "key": {"RSV-A2-GFP virus": {"tested_on": "RSV-A2-GFP virus", "test": "microbe, parasite or virus in culture", "assay_type": "cell-based, Human Respiratory Syncytial Virus", "how_it_was_run": "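Assay-ready frozen Calu-1 cells at 20,000 cells/mL were infected with recombinant RSV-A2-GFP (MOI 1.2) in DMEM with 2% FBS. Cells were exposed to 10-point 3-fold compound dilutions for 96 h at 37° C. GFP-positive cells were counted by imaging, with same-well CellTiter-Glo for cytotoxicity, and IC50 and CC50 came from 4-parameter logistic fits.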"}, "hMPV-GFP virus": {"tested_on": "hMPV-GFP virus", "test": "microbe, parasite or virus in culture", "assay_type": "cell-based, human metapneumovirus", "how_it_was_run": "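VERO cells infected with GFP-expressing hMPV at MOI 1.25 were incubated 48 h at 37 °C with compound in 10-point 3-fold dilutions (typically 40,300–2 nM final). GFP-positive cells were counted by imaging. Same-well CellTiter-Glo gave cytotoxicity, and IC50/CC50 came from 4-parameter logistic fits.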"}, "[1]": {"settings": "human respiratory syncytial virus, Calu-1, 96 h, read-out: RSV EC50, Calu-1 cells infected with RSV-A2-GFP, 96 hrs, GFP-expressing cells counted"}, "[2]": {"settings": "human metapneumovirus, Vero, 48 h, read-out: hMPV EC50, VERO cells infected with hMPV-GFP, 48 hrs, GFP-expressing cells counted"}, "[3]": {"settings": "Calu-1 cells infected with RSV-A2-GFP, 96 hrs, GFP-expressing cells counted, read-out: RSV EC50"}, "[4]": {"settings": "VERO cells infected with hMPV-GFP, 48 hrs, GFP-expressing cells counted, read-out: hMPV EC50"}}, "note": "Where two headings read alike, the source gives them in different places."}
{"smiles": "Cn1nc(-c2ncccn2)cc1C(=O)N1C[C@@H]2[C@H](C1)[C@H]2Oc1cc(C(C)(C)N)cc(-n2ccc3c(F)cccc32)n1", "note": "[Example 60, ((1R,5S,6s)-6-((4-(2-aminopropan-2-yl)-6-(4-fluoro-1H-indol-1-yl)pyridin-2-yl)oxy)-3-azabicyclo[3.1.0]hexan-3-yl)(1-methyl-3-(pyrimidin-2-yl)-1H-pyrazol-5-yl)methanone]", "values": [{"measurement": "EC50", "setting": "RSV-A2-GFP virus; [1]", "result": "< 10", "unit": "nM"}, {"measurement": "EC50", "setting": "hMPV-GFP virus; [2]", "result": "10 to 100", "unit": "nM"}]}
{"smiles": "Cc1nn(-c2ncccn2)cc1C(=O)N1C[C@@H]2[C@H](C1)[C@H]2Oc1cc(C(C)(C)N)cc(-c2ccc(F)cc2)n1", "note": "[Example 61, ((1R,5S,6s)-6-((4-(2-aminopropan-2-yl)-6-(4-fluorophenyl)pyridin-2-yl)oxy)-3-azabicyclo[3.1.0]hexan-3-yl)(3-methyl-1-(pyrimidin-2-yl)-1H-pyrazol-4-yl)methanone]", "values": [{"measurement": "EC50", "setting": "RSV-A2-GFP virus; [1]", "result": "< 10", "unit": "nM"}, {"measurement": "EC50", "setting": "hMPV-GFP virus; [2]", "result": "> 100", "unit": "nM"}]}
{"smiles": "COc1nn(-c2ncccn2)cc1C(=O)N1C[C@@H]2[C@H](C1)[C@H]2Oc1cc(C(C)(C)N)cc(-c2ccc(F)cc2)n1", "note": "[Example 62, ((1R,5S,6s)-6-((4-(2-aminopropan-2-yl)-6-(4-fluorophenyl)pyridin-2-yl)oxy)-3-azabicyclo[3.1.0]hexan-3-yl)(3-methoxy-1-(pyrimidin-2-yl)-1H-pyrazol-4-yl)methanone]", "values": [{"measurement": "EC50", "setting": "RSV-A2-GFP virus; [1]", "result": "< 10", "unit": "nM"}, {"measurement": "EC50", "setting": "hMPV-GFP virus; [2]", "result": "> 100", "unit": "nM"}]}
{"smiles": "CC(C)(N)c1cc(O[C@H]2[C@@H]3CN(C(=O)c4cnn(-c5ncccn5)c4)C[C@@H]32)nc(-c2ccc(F)cc2)c1", "note": "[Example 63, ((1R,5S,6s)-6-((4-(2-aminopropan-2-yl)-6-(4-fluorophenyl)pyridin-2-yl)oxy)-3-azabicyclo[3.1.0]hexan-3-yl)(1-(pyrimidin-2-yl)-1H-pyrazol-4-yl)methanone]", "values": [{"measurement": "EC50", "setting": "RSV-A2-GFP virus; [3]", "result": "< 10", "unit": "nM"}, {"measurement": "EC50", "setting": "hMPV-GFP virus; [4]", "result": "> 100", "unit": "nM"}]}
{"smiles": "CCc1nn(-c2ncccn2)cc1C(=O)N1C[C@@H]2[C@H](C1)[C@H]2Oc1cc(C(C)(C)N)cc(-c2ccc(F)cc2)n1", "note": "[Example 64, ((1R,5S,6s)-6-((4-(2-aminopropan-2-yl)-6-(4-fluorophenyl)pyridin-2-yl)oxy)-3-azabicyclo[3.1.0]hexan-3-yl)(3-ethyl-1-(pyrimidin-2-yl)-1H-pyrazol-4-yl)methanone]", "values": [{"measurement": "EC50", "setting": "RSV-A2-GFP virus; [3]", "result": "< 10", "unit": "nM"}, {"measurement": "EC50", "setting": "hMPV-GFP virus; [4]", "result": "> 100", "unit": "nM"}]}
{"smiles": "CC(C)(N)c1cc(O[C@H]2[C@@H]3CN(C(=O)c4cn(-c5ncccn5)nc4C4CC4)C[C@@H]32)nc(-c2ccc(F)cc2)c1", "note": "[Example 65, ((1R,5S,6s)-6-((4-(2-aminopropan-2-yl)-6-(4-fluorophenyl)pyridin-2-yl)oxy)-3-azabicyclo[3.1.0]hexan-3-yl)(3-cyclopropyl-1-(pyrimidin-2-yl)-1H-pyrazol-4-yl)methanone]", "values": [{"measurement": "EC50", "setting": "RSV-A2-GFP virus; [3]", "result": "< 10", "unit": "nM"}, {"measurement": "EC50", "setting": "hMPV-GFP virus; [4]", "result": "> 100", "unit": "nM"}]}
{"smiles": "CC(C)(N)c1cc(O[C@H]2[C@@H]3CN(C(=O)c4cn(-c5ncccn5)nc4C(F)F)C[C@@H]32)nc(-c2ccc(F)cc2)c1", "note": "[Example 66, ((1R,5S,6s)-6-((4-(2-aminopropan-2-yl)-6-(4-fluorophenyl)pyridin-2-yl)oxy)-3-azabicyclo[3.1.0]hexan-3-yl)(3-(difluoromethyl)-1-(pyrimidin-2-yl)-1H-pyrazol-4-yl)methanone]", "values": [{"measurement": "EC50", "setting": "RSV-A2-GFP virus; [3]", "result": "< 10", "unit": "nM"}, {"measurement": "EC50", "setting": "hMPV-GFP virus; [4]", "result": "> 100", "unit": "nM"}]}
{"smiles": "CC(C)(N)c1cc(O[C@H]2[C@@H]3CN(C(=O)c4cn(-c5ncccn5)nc4C(F)(F)F)C[C@@H]32)nc(-c2ccc(F)cc2)c1", "note": "[Example 67, ((1R,5S,6s)-6-((4-(2-aminopropan-2-yl)-6-(4-fluorophenyl)pyridin-2-yl)oxy)-3-azabicyclo[3.1.0]hexan-3-yl)(1-(pyrimidin-2-yl)-3-(trifluoromethyl)-1H-pyrazol-4-yl)methanone]", "values": [{"measurement": "EC50", "setting": "RSV-A2-GFP virus; [3]", "result": "< 10", "unit": "nM"}, {"measurement": "EC50", "setting": "hMPV-GFP virus; [4]", "result": "> 100", "unit": "nM"}]}
{"smiles": "CCOc1nn(-c2ncccn2)cc1C(=O)N1C[C@@H]2[C@H](C1)[C@H]2Oc1cc(C(C)(C)N)cc(-c2ccc(F)cc2)n1", "note": "[Example 68, ((1R,5S,6s)-6-((4-(2-aminopropan-2-yl)-6-(4-fluorophenyl)pyridin-2-yl)oxy)-3-azabicyclo[3.1.0]hexan-3-yl)(3-ethoxy-1-(pyrimidin-2-yl)-1H-pyrazol-4-yl)methanone]", "values": [{"measurement": "EC50", "setting": "RSV-A2-GFP virus; [3]", "result": "< 10", "unit": "nM"}, {"measurement": "EC50", "setting": "hMPV-GFP virus; [4]", "result": "> 100", "unit": "nM"}]}
{"smiles": "CC(C)(N)c1cc(O[C@H]2[C@@H]3CN(C(=O)c4cn(-c5ncccn5)nc4OC(F)F)C[C@@H]32)nc(-c2ccc(F)cc2)c1", "note": "[Example 69, ((1R,5S,6s)-6-((4-(2-aminopropan-2-yl)-6-(4-fluorophenyl)pyridin-2-yl)oxy)-3-azabicyclo[3.1.0]hexan-3-yl)(3-(difluoromethoxy)-1-(pyrimidin-2-yl)-1H-pyrazol-4-yl)methanone]", "values": [{"measurement": "EC50", "setting": "RSV-A2-GFP virus; [3]", "result": "< 10", "unit": "nM"}, {"measurement": "EC50", "setting": "hMPV-GFP virus; [4]", "result": "> 100", "unit": "nM"}]}
{"smiles": "CC(C)(N)c1cc(O[C@H]2[C@@H]3CN(C(=O)c4cn(-c5ncccn5)nc4N)C[C@@H]32)nc(-c2ccc(F)cc2)c1", "note": "[Example 70, (3-amino-1-(pyrimidin-2-yl)-1H-pyrazol-4-yl)((1R,5S,6s)-6-((4-(2-aminopropan-2-yl)-6-(4-fluorophenyl)pyridin-2-yl)oxy)-3-azabicyclo[3.1.0]hexan-3-yl)methanone]", "values": [{"measurement": "EC50", "setting": "RSV-A2-GFP virus; [3]", "result": "< 10", "unit": "nM"}, {"measurement": "EC50", "setting": "hMPV-GFP virus; [4]", "result": "> 100", "unit": "nM"}]}
{"smiles": "Cc1nn(-c2ncc(F)cn2)cc1C(=O)N1C[C@@H]2[C@H](C1)[C@H]2Oc1cc(C(C)(C)N)cc(-c2ccc(F)cc2)n1", "note": "[Example 71, ((1R,5S,6s)-6-((4-(2-aminopropan-2-yl)-6-(4-fluorophenyl)pyridin-2-yl)oxy)-3-azabicyclo[3.1.0]hexan-3-yl)(1-(5-fluoropyrimidin-2-yl)-3-methyl-1H-pyrazol-4-yl)methanone]", "values": [{"measurement": "EC50", "setting": "RSV-A2-GFP virus; [3]", "result": "< 10", "unit": "nM"}, {"measurement": "EC50", "setting": "hMPV-GFP virus; [4]", "result": "> 100", "unit": "nM"}]}
{"smiles": "Cc1ccnc(-n2cc(C(=O)N3C[C@@H]4[C@H](C3)[C@H]4Oc3cc(C(C)(C)N)cc(-c4ccc(F)cc4)n3)c(C)n2)n1", "note": "[Example 72, ((1R,5S,6s)-6-((4-(2-aminopropan-2-yl)-6-(4-fluorophenyl)pyridin-2-yl)oxy)-3-azabicyclo[3.1.0]hexan-3-yl)(3-methyl-1-(4-methylpyrimidin-2-yl)-1H-pyrazol-4-yl)methanone]", "values": [{"measurement": "EC50", "setting": "RSV-A2-GFP virus; [3]", "result": "< 10", "unit": "nM"}, {"measurement": "EC50", "setting": "hMPV-GFP virus; [4]", "result": "> 100", "unit": "nM"}]}
{"smiles": "Cc1nn(-c2ncccn2)c(C)c1C(=O)N1C[C@@H]2[C@H](C1)[C@H]2Oc1cc(C(C)(C)N)cc(-c2ccc(F)cc2)n1", "note": "[Example 73, ((1R,5S,6s)-6-((4-(2-aminopropan-2-yl)-6-(4-fluorophenyl)pyridin-2-yl)oxy)-3-azabicyclo[3.1.0]hexan-3-yl)(3,5-dimethyl-1-(pyrimidin-2-yl)-1H-pyrazol-4-yl)methanone]", "values": [{"measurement": "EC50", "setting": "RSV-A2-GFP virus; [3]", "result": "< 10", "unit": "nM"}, {"measurement": "EC50", "setting": "hMPV-GFP virus; [4]", "result": "> 100", "unit": "nM"}]}
{"smiles": "Cc1nc(-c2ncccn2)[nH]c1C(=O)N1C[C@@H]2[C@H](C1)[C@H]2Oc1cc(C(C)(C)N)cc(-c2ccc(F)cc2)n1", "note": "[Example 75, ((1R,5S,6s)-6-((4-(2-aminopropan-2-yl)-6-(4-fluorophenyl)pyridin-2-yl)oxy)-3-azabicyclo[3.1.0]hexan-3-yl)(4-methyl-2-(pyrimidin-2-yl)-1H-imidazol-5-yl)methanone]", "values": [{"measurement": "EC50", "setting": "RSV-A2-GFP virus; [3]", "result": "10 to 100", "unit": "nM"}, {"measurement": "EC50", "setting": "hMPV-GFP virus; [4]", "result": "> 100", "unit": "nM"}]}
{"smiles": "Cc1nn(-c2ncccn2)nc1C(=O)N1C[C@@H]2[C@H](C1)[C@H]2Oc1cc(C(C)(C)N)cc(-c2ccc(F)cc2)n1", "note": "[Example 76, ((1R,5S,6s)-6-((4-(2-aminopropan-2-yl)-6-(4-fluorophenyl)pyridin-2-yl)oxy)-3-azabicyclo[3.1.0]hexan-3-yl)(5-methyl-2-(pyrimidin-2-yl)-2H-1,2,3-triazol-4-yl)methanone]", "values": [{"measurement": "EC50", "setting": "RSV-A2-GFP virus; [3]", "result": "10 to 100", "unit": "nM"}, {"measurement": "EC50", "setting": "hMPV-GFP virus; [4]", "result": "> 100", "unit": "nM"}]}
